Assay results published in patent US20250375414A1, “UROLITHIN COMBINATIONS” (Amazentis SA, priority 2024, published 2025).

What was measured:
[1] = test system: Interleukin-6 (IL-6) secretion in C2C12 myotubes; assay: IL-6 release from cytomix (CTX)-inflamed C2C12 myotubes (ELISA of culture media); assay type: cell-based, mouse; details: for Impact on the release of IL-6 (significance): FIG. 3
Method: We first studied what is the lowest non-functional dose of Urolithin A in the context of cytokine-mediated muscle cell inflammation. For this, we exposed C2C12 myotubes to increasing doses of Urolithin A within a range of 1.56 uM to […] for 24 hours, and then induced inflammation for an additional 24 hours by applying to cells a mix of pro-inflammatory cytokines (Cytomix, abbreviated CTX). One set of cells were left untreated, indicated by the first bar (CTX−, UA−). One set of cells were treated with CTX but not Urolithin A (second bar, CTX+, UA−). At the end of the study, we measure the concentration of the proinflammatory biomarker Interleukin 6 (IL-6) released in the cell culture media.
Based on the literature we used concentrations of ERGO at two low doses—potentially non-functional—i.e. 4 uM and 20 uM. […] As for the UA experiment in FIG. 1, we treated C2C12 with ERGO at these […] doses for 24 hours, followed by treatment with CTX for additional 24 hours.
For this combination experiment, C2C12 were treated without CTX, with CTX alone and with CTX plus either UA alone (6.25 uM), ERGO alone (both 20 uM and 100 uM) and UA plus ERGO 20 uM and UA+ERGO 100 uM.
C2C12 Myoblasts purchased from the American Type Culture Collection (ATCC; ref. CRL-1772) were seeded at 8000 cells per well in a 96 well plate (Greiner) using a DMEM Glutamax 4.5 g D-glucose (Gibco, ref 31966021) supplemented with FBS 10% (PanBiotech, ref P190902), 1% PenStrep (Biowest, Nuaill6, France) and 1% Hepes (Biowest). Cells were then differentiated for 6 days using a differentiation medium (DMEM Glutamax 4.5 g D-glucose (Gibco, ref 31966021), 2% Horse serum (Thermofisher, ref 160501229) 1% PenStrep and 1% Hepes). All our media were sterilized with a 0.45 μm filter unit (VWR). After 4 days of the differentiation cells were treated for 24 h with 1) Urolithin A (UA), Ergothieoneine (ERGO, MedChem Express HY-N1914) or a combination of the two at the indicated doses. Cytokine mix (“cytomix”) was added at day 5 in addition of the previous treatment for another 24 h, cytokines were respectively used at 5 ng (mIFN-γ (Roche ref.11276905001), TNF-α (Peprotech ref. 300-01A) and IL-β (Proteintech ref. 200-011B)). The medium was collected and an ELISA for Interleukin-6 were performed following the instruction provided by the supplier (Proteintech ref. KE10007). Finally, the absorbance at a wavelength of 450 nm was measured using a microplate plate reader (Fluostar Optima, BMG Labtech).

[2] = test system: IL-6 levels in stressed C2C12 cells; details: cited from earlier work
[3] = test system: IL-6 levels in 3T3-L1 cells; details: 3T3-L1 cells after stimulation with TNFα; cited from earlier work
[4] = test system: Interleukin-6 (IL-6) secretion in human dermal fibroblasts (nHDF); assay: IL-6 in supernatant of cytokine mix-treated normal human dermal fibroblasts (nHDF) (ELISA); assay type: cell-based
Method: A dose of 0.025 ng/ml of Cytokines mix was applied to induce inflammation, measured by quantifying the levels of the pro-inflammatory cytokine interleukin 6 (IL-6) in the cell culture supernatant. For the experiment, cells were first pre-treated with either i) urolithin A 2.5 uM, ii) Zinc at 100 uM, iii) a combination of urolithin A 2.5 uM and Zinc 100 uM, iv) or DMSO as control for 24 h. Then cells were co-treated with both CTX and either urolithin A or Zinc alone or in combination, as above. After 24 h, IL-6 was measured in the cell supernatant to assess the ability of Urolithin A and Zinc to reduce Cytokines-induced inflammation.
Normal Human dermal fibroblasts (nHDF) purchased from Promocell (ref. C-12302) were seeded at 6000 cells per well in a 96 well plate (Greiner) using a DMEM Glutamax 1 g D-glucose (Gibco, ref 21885108) supplemented with FBS 10% (PanBiotech, ref P30-3033), 1% PenStrep (Biowest) and 1% Hepes (Biowest). All media were sterilized with a 0.45 μm filter unit (VWR). The day after the seeded cells were treated for 24 h with 1) Urolithin A (UA) resuspended in DMSO, Zinc gluconate (MedChemExpress Ref. HY-W145499) or a combination of the two at the indicated doses.Cytokine mix (“cytomix”) was added in addition of the previous treatment for another 24 h, cytokines were used equally for a total and final concentration of 0.025 ng/ml (mIFN-g (roche ref.11276905001), TNF-α (Peprotech ref. 300-01A) and IL-b (Proteintech ref. 200-011B)). The medium was collected and an ELISA for Interleukin-6 were performed following the instruction provided by the supplier (Proteintech ref. KE10007). Finally, the absorbance at a wavelength of 450 nm was measured using a microplate plate reader (Fluostar Optima, BMG Labtech). IL-6 data were finally normalized over cell number, calculated with a cell viability assay (Promega, ref. G7571).

With C[N+](C)(C)[C@@H](Cc1c[nH]c(=S)[nH]1)C(=O)[O-] [ERGO, ergothioneine] the “Percent change in IL-6 vs CTX alone” value ([1]; ERGO 20 uM, 24 h, then CTX further 24 h, C2C12 myotubes) was “+1.2%”, the “Percent change in IL-6 vs CTX alone” value ([1]; ERGO 100 uM, 24 h, then CTX further 24 h, C2C12 myotubes) was −28% and the “Impact on IL6 (significance)” value ([1]; ERGO 100 uM, CTX) was “significant reduction”. The “Impact on the release of IL-6 (significance)” value ([1]; ERGO alone 20 uM, CTX) was “did not significantly impact”, the “Only dose leading to a significant decrease in CTX-induced IL-6 secretion” value ([1]; ERGO tested at 4 uM, 20 uM and 100 uM, FIG. 2) was 100 µM and the “Effect on IL-6 levels” value [2] was “reduce IL-6 levels”. For the same molecule, the “Effect on IL-6 levels” value [3] was “reduce IL-6 levels”.
For Zinc gluconate, the “% reduction IL-6” value ([4]; CTX vs. CTX + Zinc 100 uM, nHDF) was −29.6%, the “Relative Change (%) Compared to CTX” value ([4]; Zinc 100 uM, CTX 0.025 ng/ml, IL-6 in nHDF supernatant) was −29.57% and the “Reduction of CTX-mediated increase of IL-6” value ([4]; Zinc 100 uM, nHDF) was 29.6%.
For O=c1oc2cc(O)ccc2c2ccc(O)cc12 [UA, Urolithin A], the “First dose at which UA did not exert a significant reduction in IL-6 (sub-functional dose)” value ([1]; C2C12 myotubes, CTX, FIG. 1) was 6.25 µM, the “Effect on IL-6 release of CTX inflamed cells” value ([1]; UA 1.56 uM to 50 mM, 24 h, then CTX 24 h, FIG. 1) was “dose dependent decrease” and the “Percent change in IL-6 vs CTX alone” value ([1]; UA 6.25 uM, 24 h, then cytomix (CTX) further 24 h, C2C12 myotubes) was −5.2%. The “Impact on the release of IL-6 (significance)” value ([1]; UA alone 6.25 uM, CTX) was “did not significantly impact” and the “% reduction IL-6” value ([4]; CTX vs. CTX + UA 2.5 uM, nHDF) was −25%.
